For one series, the system named is Rhipicephalus sanguineus. The experiment in a line: Topical acaricidal test on brown dog ticks. Format: in vivo. The note with it: 168 h, 0.5 μl per tick, after 7 days of treatment; for mortality at 1 ppm: 1 ppm topical; for mortality at 10 ppm: 10 ppm topical; for mortality at 100 ppm: 100 ppm topical; for mortality at 1000 ppm: 1000 ppm topical. The method, then: Brown dog ticks, Rhipicephalus sanguineus, of 2nd stage, from a single cohort were used.
Three (3) compounds were tested, as well as a reference compound (Amitraze). For each compound tested and Amitraz, four doses (1000, 100, 10 and 1 ppm) were applied to the ticks topically. A negative control (acetone) and an untreated group were included for comparison. The experiments were carried out in triplicate.
Ten ticks were placed in a clear plastic container, measuring approximately 120 mm in diameter and 45 mm in height. The ticks were then anesthetized by direct exposure (for 10 seconds) to carbon dioxide. The treatments were then applied to the back (scutum) of each tick, using a Hamilton syringe, up to 0.5 μl of treatment per tick (1 application).
Cotton soaked in water was placed in each container to provide humidity throughout the experiment. The container was also vented throughout the experiment with a tube to introduce air into each container. The containers were maintained at a temperature of 23±3° C. Live, shocked and dead tick counts were taken daily after treatment for 7 days.
The averages in percentage of each evaluation category (healthy, knocked down and dead) were calculated, as well as the standard error. An analysis of variance (ANOVA) was performed using Minitab software, 16th edition.

For another series, the system named is bees (Apis mellifera). The method, then:
The bees were then dispatched in the boxes (10 per box).
The bees were then put to sleep for a few minutes using CO2 (flow of 3 liters for 20 seconds) in order to deposit 1 μL of compound to be tested on their thorax using a pipette. It should be noted that the bees which received romifidine hydrochloride at a concentration of 10 μg/μL received 2 μL of product. The bees were unconscious for the time the compound to be tested was deposited, that is to say around three minutes, then they woke up.
After thoracic deposition of the compound to be tested, the 10 bees from the same box were transferred to a box containing the 10 Varroa mites (cf. “Preparation of Varroa mites” above). Liquid sugar was left in each of the boxes to feed the bees during the observations. The series of boxes was then placed in an oven at […] with a humidity of 50% in order to approximate hive conditions as closely as possible.
The mortality of Varroa mites and bees was then monitored 5 minutes, 2 hours, 4 hours and 24 hours after application of the compound to be tested to the bees. Dead Varroa mites correspond to Varroa mites detached from the bees. Dead bees correspond to bees which no longer move and which are often placed on their thorax.
The following compositions were applied to the thorax of the bees: • Solvent, • Amitraz at 1 μg/μL in acetone, • Clonidine hydrochloride at 100 μg/μL, 10 μg/μL, 1 μg/μL and 0.1 μg/μL in methanol, • Detomidine hydrochloride monohydrate at 1 μg/μL in methanol, • Dexmedetomidine hydrochloride at 100 μg/μL, 10 μg/μL, 1 μg/μL and 0.1 μg/μL in methanol, • Romifidine hydrochloride at 10 μg/μL and at 5 μg/μL in methanol, • Tizanidine hydrochloride at 1 μg/μL in methanol, • Medetomidine hydrochloride at 0.1 μg/μL in ethanol, • Levomedetomidine hydrochloride at 100 μg/μL, 10 μg/μL, 1 μg/μL and 0.1 μg/μL in methanol, • Octopamine at 1 μg/μL in ethanol. Results

For the next series, the system named is Varroa destructor. Put plainly: Efficiency against Varroa mites in beehives outside the brood (gel application). Format: in vivo. The text has this:
(§1) 18 hives of bees were divided into 6 groups of 3 homogeneous hives as regards the strength of the colonies (number of bees) and the Varroa infestation.
The queen of each hive was caged 3 weeks before the application of the tested compounds. The application of the tested compounds was therefore carried out in a situation outside the brood, which allows the forced passage of the Varroa mites from their reproduction phase to their phoresy phase (they are therefore all present on the bees).
(§2) The tested compounds were applied in the form of a gel three weeks after the queen was caged. The activity of the compounds was studied for a period of 9 days.
Following these 9 days of treatment, a control treatment with oxalic acid was carried out (duration of treatment equal to 1 week).
Counts of Varroa mites falling on the floor were carried out at regular time intervals to quantify the number of dead Varroa mites.
The efficiency of the treatment was calculated by taking the sum of all the dead Varroa mites from D0 to D9 (tested compounds) and dividing it by the sum of all the dead Varroa mites from D0 to D16 (tested compounds+control treatment).
(§3) The following compounds were tested: • Dexmedetomidine at 55 mg/hive in hydrochloride form, • Dexmedetomidine at 110 mg/hive in hydrochloride form, • Dexmedetomidine at 220 mg/hive in hydrochloride form, • Detomidine at 38.4 mg/hive in hydrochloride form, • Detomidine at 110 mg/hive in hydrochloride form, • Detomidine at 220 mg/hive in hydrochloride form, Results

For series [1], the system named is bees. The experiment in a line: Mortality of adult bees in treated beehives (dead bee traps). Type of series: in vivo. The protocol: as §1, §2
For this purpose, dead bee traps disposed in front of the hives were used.
as §3

Series [2] relates to bees. The following applies: 100 μg/mL syrup ad libitum. The protocol: Bees and Varroa mites were obtained and contacted as detailed in Example 1 (without the treatment step).
The bees on which the Varroa mites are attached (10 bees placed in contact with 10 Varroa mites) were fed with: • A pure syrup (Negative control), or • A syrup comprising dexmedetomidine hydrochloride at 100 μg/mL syrup.
The syrup was provided to the bees ad libitum in 1.5 mL eppendorf tubes.

Counter-ions that a name gives are not always drawn. Like-named read-outs stand apart in the source and are kept apart here.

As to `Cc1cccc(C(C)c2cnc[nH]2)c1C` (racemic) [Medetomidine hydrochloride], in the series on Rhipicephalus sanguineus, the mortality at 1 ppm was 26.7%, the mortality at 10 ppm is 66.7%, the mortality at 100 ppm turned out to be 93.3% and the mortality at 1000 ppm came out at 100%.
`Cc1ccc(/N=C/N(C)/C=N/c2ccc(C)cc2C)c(C)c1` [Amitraz]: the “bees killed / bee mortality” value with bees (Apis mellifera) (1 μg/μL, 1 μL on bee thorax, time not stated (monitored up to 24 hours)) came to 0%. In the series on Rhipicephalus sanguineus, this molecule came in with a mortality at 1 ppm of 30%, a mortality at 10 ppm of 46.7%, a mortality at 100 ppm of 96.7% and a mortality at 1000 ppm of 100%.
In the series on Rhipicephalus sanguineus, `Cc1cccc(Cc2cnc[nH]2)c1C` [Detomidine hydrochloride, 4-[(2,3-dimethylphenyl)-methyl]-3H-imidazole] gave a mortality at 1 ppm of 26.7%, a mortality at 10 ppm of 23.3%, a mortality at 100 ppm of 50% and a mortality at 1000 ppm of 100%. The “Varroacid effect in the hive (in words)” value in the series with Varroa destructor (220 mg/hive, gel, 9 days) is given as “allows to have a Varroacid effect”. Also, the “mortality of the bees in the hive (in words)” value in the series on bees [1] (220 mg/hive) is given as “increase in the mortality of the bees”.
In the case of `Cc1cccc([C@H](C)c2c[nH]cn2)c1C` [Dexmedetomidine hydrochloride, (S)-4-[1-(2,3-dimethylphenyl)-ethyl]-1H-imidazole], the mortality for bees result in the series on bees (Apis mellifera) (0.1 μg/μL, after 24 hours) is reported as “less than 5%”; in the series on bees (Apis mellifera) (10 μg/μL, after 24 hours), “less than 5%”. The “mortality / toxicity for the bees” value in the series with bees (Apis mellifera) (1 μg/μL, after 24 hours) is listed as “less than 5%”. Further, the toxicity for bees result in the series with bees (Apis mellifera) (100 μg/μL) was “toxic for bees”. Besides, the “% bee mortality” value worked out at 0% in the series on bees [2] (5 min); 0% with bees [2] (1 h); 5% in the series with bees [2] (2 h); 5% with bees [2] (3 h 30); 5% with bees [2] (3 h 45); 5% with bees [2] (24 h). In the series with Rhipicephalus sanguineus, this molecule came in with a mortality at 1 ppm of 20%. For the same molecule, the mortality at 10 ppm in the series on Rhipicephalus sanguineus amounted to 93.3%. In the series with Rhipicephalus sanguineus, the mortality at 100 ppm was 100%. The same molecule registered a mortality at 1000 ppm in the series with Rhipicephalus sanguineus of 100%. Besides, the “total efficiency against Varroa mites (dead Varroa D0 to D9 / dead Varroa D0 to D16)” value with Varroa destructor (220 mg/hive, gel, 9 days, outside the brood) is on record as 94.5%. The “dose dependence of efficiency against Varroa mites (in words)” value in the series on Varroa destructor (55, 110, 220 mg/hive) is “dose effect”. The “bee mortality in the hive (in words)” value in the series with bees [1] (55, 110, 220 mg/hive) is “no increase in bee mortality”.

Values taken from US12501899B2, “Mite infestation treatment” (priority 2019, dated 2025).
